Columns and labels:
Format in all cases: in vivo
doublecortin (DCX) = assay: Ex.4 therapeutic HIE rat model: doublecortin staining
Experimental: The sections were heated in 10 mmol/L citrate buffer (pH 6.0) at 100° C. for 10 minutes. Endogenous peroxidase activity was blocked with 3% hydrogen peroxide for 10 minutes and after a second blocking with 5% normal goat serum, the sections were incubated with anti-doublecortin (DCX) antibody, diluted 1:1000 (rabbit polyclonal antibody; Abcam, Cambridge, UK) and anti-vascular endothelial growth factor (VEGF) antibody, diluted 1:100 (mouse monoclonal antibody; Abcam, Cambridge, UK) overnight at 4° C. After rinsing, Alexa Fluor® goat anti-rabbit, diluted 1:1000 and Alexa Fluor® goat anti-mouse, diluted 1:1000 (Invitrogen Inc., Ghent, Belgium) were added and sections were incubated 1 h at room temperature. Mounting medium containing 4′,6-diamidino-2-phenylindole (DAPI) for fluorescent studies was used (Vector Laboratories). Samples were analyzed with the aid of a microscope (Olympus Vanox AHBT3, Olympus), and the ImageJ software (NIH). The percentage of positively stained cells was quantified as a sum of positively stained either DCX or VEGF cells divided by the total number of DAPI positive cells expressed in percentage.
(§1) To study the therapeutic effect of estetrol, newborn rat pups were assigned to one of the following 6 groups at postnatal day 7: sham group (n=29), vehicle group (n=20), 1 mg/kg E4 group (n=16), 5 mg/kg E4 group (n=19), 10 mg/kg day E4 (n=17) and 50 mg/kg day E4 group (n=15). At postnatal day 7 animals were anesthetized with isoflurane (induction, 3.0%; maintenance, 1.5%), and the rat pups from vehicle and E4 groups passed through surgery encompassing left common carotid artery double ligation and cut. After surgery, the pups were returned to their dams and allowed to recover for 1 hour. The pups were then placed in a humidified hypoxic in vivo cabinet (CoyLab). Hypoxia was produced by the inhalation of 11%-8% of oxygen balanced by nitrogen at decreased concentration of oxygen for 20 minutes, followed by inhalation of 8% oxygen and 92% nitrogen at constant concentration for 35 minutes. All the manipulations were performed at 37° C.
Upon retrieval from the hypoxia chamber the rat pups were injected intraperitoneally either by vehicle (vehicle group) or by E4 (1 mg/kg, 5 mg/kg, 10 mg/kg or 50 mg/kg) in accordance to the group assignment. The animals from the sham group went through similar procedures but proceeded neither left common carotid artery ligation and cut followed by hypoxia nor vehicle or estetrol administration. Rat pups recovered with their dams until being sacrificed at postnatal day 14.

[1] = system: glial fibrillary acidic protein (GFAP); assay: Ex.4 therapeutic HIE rat model: blood serum GFAP ELISA; conditions: estetrol treated animals (1, 5, 10, 50 mg/kg single ip dose after HI); PND14; vs vehicle
Experimental: Blood was withdrawn, centrifuged and the serum samples were stored at −80° C.
ELISAs for detecting the brain damage markers S100B protein (Catalog# CSB-E08066r, Cusabio Biotech Co., LTD, China), and glial fibrillary acidic protein (GFAP) (Catalog# E90068Ra, Uscn Life sciences Inc., China) in blood serum samples were performed according to the manufacturers' recommendations.
as §1, with “C. […]” for “C.”

[2] = Ex.8 therapeutic HIE rat model (E4 alone or combinations): rectal temperature; conditions: vs sham
Experimental: All the compounds used for in vivo studies were dissolved in absolute Ethanol (ETOH) and further diluted in saline solution at a final concentration of ETOH 10%. An equal volume (5 μ1/g) of the solution was injected intraperitoneally (ip) into the pups from study groups. Rat pups from the vehicle group were ip injected a saline solution containing 10% ETOH. Rat pups from the Sham group were not injected at all.
To study the therapeutic effect of estetrol, newborn rat pups were assigned to one of the following 14 groups at postnatal day 7 (FIG. 23(B)): Sham group (n=12), Vehicle (n=15), 5 mg/kg/day E4 (n=11), 10 mg/kg/day E4 (n=11), 5 mg/kg/day E4+1.6 mg/kg/day PROG (n=11), 10 mg/kg/day E4+1.6 mg/kg/day PROG (n=11), 5 mg/kg/day E4+16 mg/kg/day PROG (n=11), 10 mg/kg/day E4+16 mg/kg/day PROG (n=13), 5 mg/kg/day E4+136 ng//kg/day E2 (n=11), 10 mg/kg/day E4+136 ng/kg/day E2 (n=11), 5 mg/kg/day E4+1.6 mg/kg/day PROG+136 ng/kg/day E2 (n=12), 10 mg/kg/day E4+1.6 mg/kg/day PROG+136 ng/kg/day E2 (n=11), 5 mg/kg/day E4+16 mg/kg/day PROG+136 ng/kg/day E2 (n=11), 10 mg/kg/day E4+16 mg/kg/day PROG+136 ng/kg/day (n=12) groups. […]
The rectal temperature of the rat pups was measured with a multipurpose thermometer (BAT-10R, Physitemp Instruments Inc., Clifton, N.J., US) along with a rectal probe (RET-4, BioMedical Instruments, Zollnitz, Germany) at 0, 2, and 4 hours after exposure to hypoxic insult. […]

In the case of C[C@]12CC[C@@H]3c4ccc(O)cc4CC[C@H]3[C@@H]1[C@@H](O)[C@@H](O)[C@@H]2O [E4, 1,3,5(10)-estratrien-3,15α,16α,17β-tetrol], the “percentage of DCX positively stained cells” value (“percentage” for short) (doublecortin (DCX); 5 mg/kg E4 single ip dose after HI, cortex) is reported as 45.2±3.339%, the “percentage” value (doublecortin (DCX); 10 mg/kg E4 single ip dose after HI, CA1) is reported as 37.1±3.84 and the “percentage” value (doublecortin (DCX); 10 mg/kg E4 single ip dose after HI, CA2/CA3) is reported as 42.5±5.986%. For the same molecule, the “percentage” value (doublecortin (DCX); 10 mg/kg E4 single ip dose after HI, cortex) was 49.4±4.949%, the “percentage” value (doublecortin (DCX); 50 mg/kg E4 single ip dose after HI, CA1) was 37.3±4.784% and the “percentage” value (doublecortin (DCX); 50 mg/kg E4 single ip dose after HI, cortex) was 49.6±3.11%. For the same molecule, the DCX staining (doublecortin (DCX); E4 1, 5, 10, 50 mg/kg single ip dose after HI, DG, among study groups) was “neither DCX nor VEGF staining was significantly different”, the “expression of GFAP protein in blood serum” value [1] was “significantly lower expression” and the rectal temperature ([2]; 5 mg/kg/day E4, 4 h after HI, E4+E2 and E4+16 mg/kg/day PROG+E2) was “significantly higher rectal temperature”. For the same molecule, the rectal temperature ([2]; 10 mg/kg/day E4, 4 h after HI, E4+E2 and E4+16 mg/kg/day PROG) was “significant increase of the rectal temperature”.

Reference: patent publication US9808470B2, “Estrogenic components for use in the treatment of neurological disorders” (UNIVERSITE DE LIEGE, priority 2012, dated 2017)
